This passage reports IC50 results from patent US20130209543A1, “ENHANCED TREATMENT REGIMENS USING MTOR INHIBITORS” (Intellikine LLC, priority 2011, published 2013).

Where only a bound is given, the exact number is not on record here.

Common to all, as to type: biochemical
One experiment concerns the target PI3K δ (Homo sapiens, UniProt O00329). Kind of experiment: PI3K δ kinase assay. The settings on record: Table 2.
A further experiment addresses T1, mTOR (Homo sapiens, UniProt P42345).
T1 construct: purchased Invitrogen
The experiment can be described thus: mTOR kinase inhibition assay. To be noted: Table 2; read-out: mTORC IC50.

For the next experiment, the target named is PI3K α (Homo sapiens, UniProt P42336). Kind of experiment: PI3K α kinase assay. To be noted: Table 2.
For the next experiment, the target named is PI3K β (Homo sapiens, UniProt P42338). The experiment can be described thus: PI3K β kinase assay. To be noted: Table 2.
The next experiment deals with PI3K γ (Homo sapiens, UniProt P48736). The experiment can be described thus: PI3K γ kinase assay. The settings on record: Table 2.
PI3K γ, sequence (P48736 whole entry, species assumed): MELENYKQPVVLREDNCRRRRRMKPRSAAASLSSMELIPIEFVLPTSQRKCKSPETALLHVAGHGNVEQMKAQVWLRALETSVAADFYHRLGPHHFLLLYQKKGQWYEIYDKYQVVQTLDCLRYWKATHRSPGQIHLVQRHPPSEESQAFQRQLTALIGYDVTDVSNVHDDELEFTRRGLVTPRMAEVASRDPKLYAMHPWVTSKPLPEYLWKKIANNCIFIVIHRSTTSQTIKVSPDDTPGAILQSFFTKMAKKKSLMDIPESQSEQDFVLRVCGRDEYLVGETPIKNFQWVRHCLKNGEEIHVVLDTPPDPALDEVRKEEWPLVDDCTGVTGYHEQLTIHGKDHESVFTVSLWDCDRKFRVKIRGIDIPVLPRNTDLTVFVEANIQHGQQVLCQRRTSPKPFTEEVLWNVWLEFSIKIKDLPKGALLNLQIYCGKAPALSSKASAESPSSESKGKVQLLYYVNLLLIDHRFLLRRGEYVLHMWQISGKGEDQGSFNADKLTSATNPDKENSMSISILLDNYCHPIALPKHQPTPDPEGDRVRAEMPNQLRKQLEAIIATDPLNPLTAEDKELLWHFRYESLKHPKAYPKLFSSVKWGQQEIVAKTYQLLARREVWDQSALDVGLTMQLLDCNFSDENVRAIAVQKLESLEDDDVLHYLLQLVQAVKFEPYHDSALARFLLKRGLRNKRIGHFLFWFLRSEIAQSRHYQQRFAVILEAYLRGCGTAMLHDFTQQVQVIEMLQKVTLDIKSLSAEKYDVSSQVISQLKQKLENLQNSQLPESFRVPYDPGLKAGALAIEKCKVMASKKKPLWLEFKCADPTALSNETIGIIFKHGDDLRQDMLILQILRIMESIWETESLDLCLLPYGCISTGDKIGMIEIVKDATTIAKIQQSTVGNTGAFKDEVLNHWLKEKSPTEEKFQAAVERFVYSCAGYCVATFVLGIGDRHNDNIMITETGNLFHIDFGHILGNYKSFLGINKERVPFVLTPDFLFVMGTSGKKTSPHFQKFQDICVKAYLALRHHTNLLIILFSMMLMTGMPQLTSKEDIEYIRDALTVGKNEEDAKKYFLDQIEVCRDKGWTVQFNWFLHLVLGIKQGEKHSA

PI3K δ, sequence (O00329 whole entry, species assumed): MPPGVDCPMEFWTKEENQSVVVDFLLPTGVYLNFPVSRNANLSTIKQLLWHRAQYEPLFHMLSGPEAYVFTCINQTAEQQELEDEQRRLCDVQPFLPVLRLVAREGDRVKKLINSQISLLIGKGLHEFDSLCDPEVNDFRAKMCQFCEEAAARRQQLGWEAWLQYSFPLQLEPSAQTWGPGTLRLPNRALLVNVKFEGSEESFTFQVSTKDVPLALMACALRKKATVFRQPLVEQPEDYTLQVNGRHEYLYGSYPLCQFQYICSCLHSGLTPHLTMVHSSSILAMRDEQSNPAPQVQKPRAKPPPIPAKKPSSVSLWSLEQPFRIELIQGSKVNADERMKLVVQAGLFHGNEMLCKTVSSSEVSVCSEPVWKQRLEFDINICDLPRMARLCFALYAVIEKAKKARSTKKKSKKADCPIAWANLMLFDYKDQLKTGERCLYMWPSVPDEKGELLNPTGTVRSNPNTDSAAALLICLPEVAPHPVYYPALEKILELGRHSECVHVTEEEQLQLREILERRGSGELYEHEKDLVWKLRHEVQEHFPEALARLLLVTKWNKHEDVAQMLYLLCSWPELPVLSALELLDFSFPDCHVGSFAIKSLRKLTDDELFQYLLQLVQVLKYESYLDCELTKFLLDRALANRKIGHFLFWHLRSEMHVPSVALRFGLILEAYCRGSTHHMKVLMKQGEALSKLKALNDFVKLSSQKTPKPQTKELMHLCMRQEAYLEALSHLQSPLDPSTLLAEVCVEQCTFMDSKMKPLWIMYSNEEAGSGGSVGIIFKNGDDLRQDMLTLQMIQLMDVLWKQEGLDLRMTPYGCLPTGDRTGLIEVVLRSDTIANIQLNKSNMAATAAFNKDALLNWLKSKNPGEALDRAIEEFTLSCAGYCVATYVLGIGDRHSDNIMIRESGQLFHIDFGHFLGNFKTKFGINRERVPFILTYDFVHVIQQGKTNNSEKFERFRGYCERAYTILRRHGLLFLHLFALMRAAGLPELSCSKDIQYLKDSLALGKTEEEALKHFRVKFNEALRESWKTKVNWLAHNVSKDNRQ
PI3K δ, sequence (P27986 whole entry partner, species assumed): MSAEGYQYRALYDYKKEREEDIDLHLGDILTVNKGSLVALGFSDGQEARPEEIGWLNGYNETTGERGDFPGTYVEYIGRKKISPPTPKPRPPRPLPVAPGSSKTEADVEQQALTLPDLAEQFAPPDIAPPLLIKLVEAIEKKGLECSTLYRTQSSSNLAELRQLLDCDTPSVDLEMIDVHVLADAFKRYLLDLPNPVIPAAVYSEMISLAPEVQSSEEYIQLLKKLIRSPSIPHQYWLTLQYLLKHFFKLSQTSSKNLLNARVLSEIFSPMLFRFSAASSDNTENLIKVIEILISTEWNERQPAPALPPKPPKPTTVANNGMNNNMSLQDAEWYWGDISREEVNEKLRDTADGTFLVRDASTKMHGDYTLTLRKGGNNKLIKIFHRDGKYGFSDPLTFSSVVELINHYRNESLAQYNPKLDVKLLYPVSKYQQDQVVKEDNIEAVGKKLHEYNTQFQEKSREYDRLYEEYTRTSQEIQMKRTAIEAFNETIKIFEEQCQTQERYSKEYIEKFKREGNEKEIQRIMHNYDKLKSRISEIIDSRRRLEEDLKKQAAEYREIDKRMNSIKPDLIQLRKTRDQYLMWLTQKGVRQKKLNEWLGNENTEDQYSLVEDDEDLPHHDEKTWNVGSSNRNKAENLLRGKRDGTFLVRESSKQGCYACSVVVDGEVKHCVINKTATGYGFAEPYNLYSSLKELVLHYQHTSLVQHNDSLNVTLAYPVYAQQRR
PI3K β, sequence (P42338 whole entry, species assumed): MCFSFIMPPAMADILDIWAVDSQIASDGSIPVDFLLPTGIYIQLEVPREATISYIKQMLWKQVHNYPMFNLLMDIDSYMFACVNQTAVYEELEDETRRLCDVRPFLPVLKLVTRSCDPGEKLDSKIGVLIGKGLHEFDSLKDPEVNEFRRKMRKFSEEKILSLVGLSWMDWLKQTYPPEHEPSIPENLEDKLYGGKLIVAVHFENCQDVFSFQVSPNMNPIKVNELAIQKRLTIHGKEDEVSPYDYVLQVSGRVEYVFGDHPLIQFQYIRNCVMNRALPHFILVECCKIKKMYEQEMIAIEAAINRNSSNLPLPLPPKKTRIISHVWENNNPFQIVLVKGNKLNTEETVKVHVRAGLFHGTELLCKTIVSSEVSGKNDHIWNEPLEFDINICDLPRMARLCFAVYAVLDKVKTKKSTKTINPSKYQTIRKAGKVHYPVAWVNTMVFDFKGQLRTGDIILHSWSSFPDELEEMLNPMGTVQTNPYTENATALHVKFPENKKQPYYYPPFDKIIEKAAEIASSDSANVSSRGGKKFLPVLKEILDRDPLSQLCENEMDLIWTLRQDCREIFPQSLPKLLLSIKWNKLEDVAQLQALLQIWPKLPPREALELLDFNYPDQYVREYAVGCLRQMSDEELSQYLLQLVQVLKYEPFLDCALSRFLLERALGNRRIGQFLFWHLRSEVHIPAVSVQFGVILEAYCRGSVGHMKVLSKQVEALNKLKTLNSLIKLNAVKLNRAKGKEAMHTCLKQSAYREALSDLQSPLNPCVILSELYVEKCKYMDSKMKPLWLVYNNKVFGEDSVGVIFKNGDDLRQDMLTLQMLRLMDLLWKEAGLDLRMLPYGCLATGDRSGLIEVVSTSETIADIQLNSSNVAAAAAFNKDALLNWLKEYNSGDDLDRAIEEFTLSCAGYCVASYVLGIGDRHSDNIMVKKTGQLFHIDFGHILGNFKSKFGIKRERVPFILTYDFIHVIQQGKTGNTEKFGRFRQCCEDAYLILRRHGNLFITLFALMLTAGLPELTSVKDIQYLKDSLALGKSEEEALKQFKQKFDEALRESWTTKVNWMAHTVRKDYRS
PI3K β, sequence (P27986 whole entry partner, species assumed): as the sequence (P27986 whole entry partner, species assumed) above
PI3K α, sequence (P42336 whole entry, species assumed): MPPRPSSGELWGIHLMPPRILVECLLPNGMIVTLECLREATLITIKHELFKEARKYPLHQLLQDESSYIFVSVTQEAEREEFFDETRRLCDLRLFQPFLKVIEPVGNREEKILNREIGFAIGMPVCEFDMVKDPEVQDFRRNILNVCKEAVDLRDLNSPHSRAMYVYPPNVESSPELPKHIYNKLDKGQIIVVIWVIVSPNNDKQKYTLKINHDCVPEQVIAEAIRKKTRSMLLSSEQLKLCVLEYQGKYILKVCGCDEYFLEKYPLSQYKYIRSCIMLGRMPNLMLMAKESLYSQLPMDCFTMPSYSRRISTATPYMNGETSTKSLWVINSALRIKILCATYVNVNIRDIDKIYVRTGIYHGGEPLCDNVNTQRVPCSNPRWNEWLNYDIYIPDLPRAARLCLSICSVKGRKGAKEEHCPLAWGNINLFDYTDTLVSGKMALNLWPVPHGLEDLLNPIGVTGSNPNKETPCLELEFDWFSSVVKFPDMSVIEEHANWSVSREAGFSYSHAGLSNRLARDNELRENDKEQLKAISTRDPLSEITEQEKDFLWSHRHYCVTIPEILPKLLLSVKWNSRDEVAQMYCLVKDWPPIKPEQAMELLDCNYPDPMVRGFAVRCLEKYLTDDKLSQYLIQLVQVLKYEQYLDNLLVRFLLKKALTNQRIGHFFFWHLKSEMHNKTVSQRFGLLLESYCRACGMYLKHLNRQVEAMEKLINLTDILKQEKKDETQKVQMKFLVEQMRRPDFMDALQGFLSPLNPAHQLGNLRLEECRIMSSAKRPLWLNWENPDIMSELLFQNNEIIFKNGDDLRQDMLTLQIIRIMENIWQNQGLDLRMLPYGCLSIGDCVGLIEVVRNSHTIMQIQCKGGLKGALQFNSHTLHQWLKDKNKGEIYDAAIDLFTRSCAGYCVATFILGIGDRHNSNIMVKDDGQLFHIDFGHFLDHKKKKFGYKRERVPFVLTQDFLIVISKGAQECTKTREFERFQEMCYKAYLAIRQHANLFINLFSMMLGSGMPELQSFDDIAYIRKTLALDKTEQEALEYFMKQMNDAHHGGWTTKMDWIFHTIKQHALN
PI3K α, sequence (P27986 whole entry partner, species assumed): as the sequence (P27986 whole entry partner, species assumed) above
Method for mTOR: The compounds described herein and any other mTorC1/mTorC2 inhibitors known in the art can be tested against recombinant mTOR (Invitrogen) in an assay containing 50 mM HEPES, pH 7.5, 1 mM EGTA, 10 mM MgCl2, 2.5 mM, 0.01% Tween, 10 μM ATP (2.5 μCi of μ-32P-ATP), and 3 mg/mL BSA. Rat recombinant PHAS-1/4EBP1 (Calbiochem; 2 mg/mL) is used as a substrate. Reactions are terminated by spotting onto nitrocellulose, which is washed with 1M NaCl/1% phosphoric acid (approximately 6 times, 5-10 minutes each). Sheets are dried and the transferred radioactivity quantitated by phosphorimaging.
For instance, one can use Invitrogen's LanthaScreen™ Kinase assay to test the inhibitors of mTOR disclosed herein. This assay is a time resolved FRET platform that measures the phosphorylation of GFP labeled 4EBP1 by mTOR kinase. The kinase reaction is performed in a white 384 well microtitre plate. The total reaction volume is 20 μl per well and the reaction buffer composition is 50 mM HEPES pH7.5, 0.01% Polysorbate 20, 1 mM EGTA, 10 mM MnCl2, and 2 mM DTT. In the first step, each well receives 2 ul of test compound in 20% dimethylsulphoxide resulting in a 2% DMSO final concentration. Next, 8ul of mTOR diluted in reaction buffer is added per well for a 60 ng/ml final concentration. To start the reaction, 10 ul of an ATP/GFP-4EBP1 mixture (diluted in reaction buffer) is added per well for a final concentration of 10 μM ATP and 0.5 μM GFP-4EBP1. The plate is sealed and incubated for 1 hour at room temperature. […] The plate is sealed, incubated for 1 hour at room temperature, and then read on a plate reader set up for LanthaScreen™ TR-FRET. Data is analyzed and IC50s are generated using GraphPad Prism 5.

On to `CCOC(=O)Cn1nc(-c2cc3cc(O)ccc3[nH]2)c2c(N)ncnc21` [Compound 28], for which the IC50 was above 500 nM on PI3K δ, 100 to 500 nM at mTOR, above 500 nM against PI3K α and above 500 nM on PI3K β.
For `COc1cc2cc(-c3nn(C(C)C)c4ncnc(N)c34)[nH]c2cc1Cl` [Compound 29], the IC50 at mTOR was above 500 nM.
On to `CC(=O)N1CCC(n2nc(-c3cc4cc(O)ccc4[nH]3)c3c(N)ncnc32)CC1` [Compound 30], for which the IC50 against PI3K δ was above 500 nM; on mTOR, 10 to 25 nM; against PI3K α it was above 500 nM; against PI3K β, above 500 nM.
As to `Nc1ncnc2c1c(-c1cc3cc(O)ccc3[nH]1)nn2C1CCN(C(=O)C2CC2)CC1` [Compound 31], the IC50 against PI3K δ was 100 to 500 nM; at mTOR, 10 to 25 nM; at PI3K α, above 500 nM; at PI3K β, above 500 nM.
For `CC(C)n1nc(-c2cc3cc(O)c(Cl)cc3[nH]2)c2c(N)ncnc21` [Compound 32], the IC50 against PI3K δ was above 500 nM; on mTOR, 100 to 500 nM; against PI3K α, above 500 nM; on PI3K γ it was above 500 nM.
Take `Nc1ncnc2c1c(-c1cc3cc(O)ccc3[nH]1)nn2CCN1CCOCC1` [Compound 33]: the IC50 on PI3K δ was above 500 nM; on mTOR, 100 to 500 nM; against PI3K α it was above 500 nM; at PI3K γ, above 500 nM.
With `Nc1ncnc2c1c(-c1cc3cc(O)ccc3[nH]1)nn2CC(=O)N1CCOCC1` [Compound 34], the IC50 on PI3K δ, on mTOR, against PI3K α and on PI3K γ was above 500 nM throughout.
On to `CNC(=O)Cn1nc(-c2cc3cc(O)ccc3[nH]2)c2c(N)ncnc21` [Compound 35], for which the IC50 at PI3K δ, on mTOR, on PI3K α and against PI3K γ was above 500 nM throughout.
For `CC(C)n1nc(-c2cc3c(O)cccc3[nH]2)c2c(N)ncnc21` [Compound 37], the IC50 against PI3K δ was 100 to 500 nM; on mTOR, above 500 nM; against PI3K α, 100 to 500 nM; on PI3K γ it was 100 to 500 nM.
`Nc1ncnc2c1c(-c1cc3cc(O)ccc3[nH]1)nn2Cc1cccnc1` [Compound 38]: the IC50 against PI3K δ is above 500 nM; at mTOR it was 100 to 500 nM; against PI3K α it was above 500 nM; against PI3K γ it was above 500 nM.
In the case of `CC(C)n1nc(-c2cc3c(Cl)ccc(O)c3[nH]2)c2c(N)ncnc21` [Compound 39], the IC50 was above 500 nM against PI3K δ, 5 to 10 nM at mTOR, above 500 nM at PI3K α and above 500 nM at PI3K γ.
On to `COCCn1nc(-c2cc3cc(O)ccc3[nH]2)c2c(N)ncnc21` [Compound 40], for which the IC50 at PI3K δ was above 500 nM; at mTOR it was 50 to 100 nM; against PI3K α, above 500 nM; against PI3K γ, above 500 nM.
Consider `Nc1ncnc2c1c(-c1cc3cc(O)ccc3[nH]1)nn2C1CCOCC1` [Compound 42], for which the IC50 was 50 to 100 nM against PI3K δ, below 5 nM at mTOR, above 500 nM on PI3K α and above 500 nM on PI3K β.
With `CNC(=O)CCn1nc(-c2cc3cc(O)ccc3[nH]2)c2c(N)ncnc21` [Compound 43], the IC50 on PI3K δ, on mTOR, against PI3K α and on PI3K β was above 500 nM each time.
Take `Cc1nccn1CCn1nc(-c2cc3cc(O)ccc3[nH]2)c2c(N)ncnc21` [Compound 44]: the concentration for half-maximal inhibition (IC50) on PI3K δ is above 500 nM; on mTOR it was 50 to 100 nM; at PI3K α, above 500 nM; against PI3K β, above 500 nM.
As to `CC(C)n1nc(-c2cc3cc(O)ccc3[nH]2)c2c(N)nccc21` [Compound 45], the IC50 at mTOR is above 500 nM.
Turning to `Nc1ncnc2c1c(-c1cc3cc(O)ccc3[nH]1)nn2C1CC(=O)C1` [Compound 53], the IC50 at mTOR is 50 to 100 nM; at PI3K α it was above 500 nM; on PI3K γ, above 500 nM; against PI3K β, above 500 nM.
For the compound `Nc1ncnc2c1c(-c1cc3cc(O)ccc3[nH]1)nn2C1CC(O)C1` (stereo not drawn) [Compound 54], the IC50 on mTOR is 10 to 25 nM; against PI3K α, above 500 nM; against PI3K γ it was above 500 nM; at PI3K β it was above 500 nM.
For `CC(C)N1CCC(n2nc(-c3cc4cc(O)ccc4[nH]3)c3c(N)ncnc32)CC1` [Compound 55], the IC50 on mTOR was 100 to 500 nM; on PI3K α, above 500 nM; at PI3K γ, above 500 nM; against PI3K β it was above 500 nM.
In the case of `CC(C)N1CCC(n2nc(-c3cc4cc(O)cc(Cl)c4[nH]3)c3c(N)ncnc32)CC1` [Compound 56], the IC50 on mTOR, at PI3K α, on PI3K γ and on PI3K β was above 500 nM in each case.
For the compound `Nc1ncnc2c1c(-c1cc3cc(O)ccc3[nH]1)nn2C1CCC(N2CCOCC2)CC1` (stereo not drawn) [Compound 57], the IC50 is 10 to 25 nM on mTOR, above 500 nM against PI3K α, above 500 nM at PI3K γ and above 500 nM at PI3K β.
`CN1CCN(C2CCC(n3nc(-c4cc5cc(O)ccc5[nH]4)c4c(N)ncnc43)CC2)CC1` (stereo not drawn) [Compound 58]: the IC50 on mTOR, against PI3K α, against PI3K γ and on PI3K β was above 500 nM in each case.
On to `COc1ccc2cc(-c3nn(C4CCOCC4)c4ncnc(N)c34)[nH]c2c1` [Compound 59], for which the IC50 on mTOR, at PI3K α, against PI3K γ and on PI3K β was above 500 nM throughout.
As for `Nc1ncnc2c1c(-c1cc3ccc(O)cc3[nH]1)nn2C1CCOCC1` [Compound 60], the IC50 at mTOR was 50 to 100 nM; at PI3K α it was above 500 nM; against PI3K γ, 50 to 100 nM; against PI3K β, above 500 nM.
